Measurements as given in the supplement of paper PMC10307832.

Key:
Experiment in all cases: relative viability (nuclei count vs DMSO), 5 days (fraction); higher = more cells survive
Gemcitabine + Pemetrexed = compound: Nc1ccn([C@@H]2O[C@H](CO)[C@@H](O)C2(F)F)c(=O)n1 [Gemcitabine] + Nc1nc2[nH]cc(CCc3ccc(C(=O)N[C@@H](CCC(=O)O)C(=O)O)cc3)c2c(=O)[nH]1 [Pemetrexed] (partner 0.2 µM)
In short: (§1)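 For relative viability, nuclei counts in treated wells were divided by those in vehicle wells. Lung cancer cell lines had been pin-tool dosed in 1536-well plates the day after seeding and cultured for 5 days, then fixed and stained in one step (final 0.05% Triton X-100, 1% formaldehyde, 1 ug/ml Hoechst) and imaged at 4×. Doses were one drug alone or a fixed anchor-drug dose plus five library-drug doses (not always all listed) in √10 steps, and values are duplicate-plate medians.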

Gemcitabine + Lapatinib = compound: Nc1ccn([C@@H]2O[C@H](CO)[C@@H](O)C2(F)F)c(=O)n1 [Gemcitabine] + CS(=O)(=O)CCNCc1ccc(-c2ccc3ncnc(Nc4ccc(OCc5cccc(F)c5)c(Cl)c4)c3c2)o1 [Lapatinib] (partner 2 µM)
In short: as §1

Gemcitabine + Dasatinib = compound: Nc1ccn([C@@H]2O[C@H](CO)[C@@H](O)C2(F)F)c(=O)n1 [Gemcitabine] + Cc1nc(Nc2ncc(C(=O)Nc3c(C)cccc3Cl)s2)cc(N2CCN(CCO)CC2)n1 [Dasatinib] (partner 0.075 µM)
In short: as §1

Gemcitabine + Crizotinib = compound: Nc1ccn([C@@H]2O[C@H](CO)[C@@H](O)C2(F)F)c(=O)n1 [Gemcitabine] + C[C@@H](Oc1cc(-c2cnn(C3CCNCC3)c2)cnc1N)c1c(Cl)ccc(F)c1Cl [Crizotinib] (partner 1 µM)
In short: as §1

Cell Line	relative viability (Gemcitabine + Pemetrexed; first compound 0.001 µM)	relative viability (Gemcitabine + Pemetrexed; first compound 0.003162 µM)	relative viability (Gemcitabine + Pemetrexed; first compound 0.01 µM)	relative viability (Gemcitabine + Pemetrexed; first compound 0.03162 µM)	relative viability (Gemcitabine + Pemetrexed; first compound 0.1 µM)	relative viability (Gemcitabine + Lapatinib; first compound 0.001 µM)	relative viability (Gemcitabine + Lapatinib; first compound 0.003162 µM)	relative viability (Gemcitabine + Lapatinib; first compound 0.01 µM)	relative viability (Gemcitabine + Lapatinib; first compound 0.03162 µM)	relative viability (Gemcitabine + Lapatinib; first compound 0.1 µM)	relative viability (Gemcitabine + Dasatinib; first compound 0.001 µM)	relative viability (Gemcitabine + Dasatinib; first compound 0.003162 µM)	relative viability (Gemcitabine + Dasatinib; first compound 0.01 µM)	relative viability (Gemcitabine + Dasatinib; first compound 0.03162 µM)	relative viability (Gemcitabine + Dasatinib; first compound 0.1 µM)	relative viability (Gemcitabine + Crizotinib; first compound 0.001 µM)	relative viability (Gemcitabine + Crizotinib; first compound 0.003162 µM)	relative viability (Gemcitabine + Crizotinib; first compound 0.01 µM)	relative viability (Gemcitabine + Crizotinib; first compound 0.03162 µM)	relative viability (Gemcitabine + Crizotinib; first compound 0.1 µM)
LCLC-97TM1	0.174	0.19	0.0994	0.0729	0.0912	0.829	0.683	0.178	0.0781	0.0994	0.819	0.803	0.429	0.159	0.106	0.297	0.179	0.0935	0.0797	0.12
HARA	0.272	0.263	0.236	0.196	0.0974	0.77	0.836	0.794	0.604	0.137	0.244	0.331	0.241	0.228	0.0727	0.975	1.02	1.02	0.3	0.124
HCC-78	0.92	0.879	0.895	0.9	0.896	0.695	0.485	0.146	0.272	0.168	0.322	0.31	0.232	0.154	0.209	0.271	0.26	0.167	0.146	0.15
NCI-H1666	0.88	0.842	0.842	0.699	0.52	0.617	0.708	0.512	0.265	0.239	0.797	0.796	0.715	0.52	0.375	0.959	1.16	0.596	0.321	0.268
NCI-H2347	0.43	0.391	0.409	0.357	0.366	0.952	0.896	0.646	0.655	0.467	0.291	0.304	0.257	0.22	0.195	0.756	0.704	0.623	0.452	0.477
NCI-H838	0.251	0.262	0.24	0.241	0.149	1.02	1.22	0.923	0.282	0.103	0.293	0.287	0.318	0.261	0.136	0.912	0.981	0.858	0.324	0.139
NCI-H2023	0.265	0.282	0.152	0.0833	0.0801	1.04	0.99	0.424	0.127	0.0738	0.529	0.533	0.207	0.0853	0.0604	0.702	0.633	0.504	0.095	0.0687
201T	0.291	0.327	0.288	0.254	0.286	0.981	1.04	1.03	0.942	0.537	0.551	0.654	0.472	0.32	0.29	1.04	1.01	0.975	0.464	0.329
NCI-H1915	0.484	0.516	0.453	0.513	0.475	0.938	0.877	0.949	0.925	0.597	0.357	0.344	0.295	0.255	0.181	0.967	0.87	0.881	0.426	0.247
NCI-H2009	1.08	0.882	0.473	0.127	0.0868	0.929	0.624	0.205	0.129	0.192	0.297	0.219	0.101	0.101	0.0766	1.18	0.841	0.227	0.102	0.0943
BEN	0.774	0.417	0.277	0.164	0.223	0.625	0.529	0.197	0.112	0.108	0.331	0.254	0.18	0.0876	0.109	0.874	0.563	0.139	0.113	0.09
PC-14	0.132	0.168	0.0563	0.0461	0.0413	0.323	0.234	0.203	0.0925	0.0562	0.262	0.12	0.0174	0.0131	0.016	0.903	0.569	0.308	0.0832	0.0612
SK-MES-1	0.804	0.271	0.2	0.201	0.173	0.499	0.468	0.295	0.201	0.203	0.297	0.171	0.116	0.119	0.114	0.923	0.809	0.221	0.179	0.164
